Source: US20100136541A1, “IDENTIFICATION AND VERIFICATION OF METHYLATION MARKER SEQUENCES” (Siemens Healthcare Diagnostics Inc., priority 2003, published 2010)

System: CA4 CpG sites
Test: Bisulfite sequencing of CpG sites, cell lines treated vs. untreated
Type: cell-based, human
Set-up: unit not given here
Experimental: Samples: Paired tumor and adjacent normal tissues from twelve colorectal cancer patients were collected under institutional review board (IRB) approval with patient consent. Tissues were flash frozen in LN2 and stored at −80° C. prior to DNA extraction. All tissues were blinded. Cell lines: A panel of five colorectal cancer cell lines was used. Cells were grown to ˜50% confluence in the appropriate culture medium prior to treatment with 5-aza-2′-deoxycytidine. Optimal concentrations and incubation times (Table 4) were determined by assaying for reduction of p16 promoter methylation using MSP. Cells were harvested, pelleted by centrifugation, and washed twice in Hanks buffered saline solution. Cell pellets were stored at −80° C. Control cells were maintained simultaneously without 5-aza-2′-deoxycytidine treatment. DNA extraction: DNA was purified from tissues and cell lines using the QIAGEN DNeasy® Tissue Kit. Approximately 25-35 mg of each tissue was pulverized under liquid nitrogen before extraction. Elution volume for tissues was 2004. A final volume of […] of cell line DNA was extracted from 15 to 254 of each packed cell pellet (between 10^6-10^7 cells). Purified DNA was stored at −20° C. Bisulfite modification: Modification was performed according to the Frommer method (See Frommer M, et al., PNAS, 89: 1827-1831 (1992).) One μg genomic DNA was diluted into 50 μl with distilled H2O, 5.5 μl of 2M NaOH was added, and the mixture incubated at 37° C. for 10 minutes (to create single stranded DNA). Thirty μl of freshly prepared 10 mM hydroquinone (Sigma) was added to each tube. Five hundred twenty μl of freshly prepared 3M sodium bisulfite (Sigma S-8890), pH 5.0 was then added. Reagents were thoroughly mixed and then covered with mineral oil and incubated at 50° C. for 16 hours. After removing the oil, 1 ml of Wizard DNA Cleanup Resin (Promega A7280) was added to each tube prior to applying the mixture to miniprep column in the DNA Wizard Cleanup kit. The column was washed with 2 ml of 80% isopropanol, and eluted with 50 μl of heated water (60-70° C.). 5.5 μl of 3 M NaOH to was added to each tube, and incubated at room temperature for 5 minutes. Then 1 μl glycogen was added as carrier, 33 μl of 10 M NH4Ac, and 3 volumes of ethanol for DNA precipitation. The pellet was spun down and washed with 70% ethanol, dried and resuspended in 20 μl water. In some instances, the EZ DNA Methylation Kit (Zymo Research) which uses a simplified version of the Frommer method was used. In these cases, 1 μg of genomic DNA was denatured in 0.3M NaOH for 15 minutes at 37° C. followed by incubation at 50° C. for 16 hours in 0.5 mM hydroquinone and a saturated solution of sodium bisulfite at pH 5. Modified DNA was bound to the Zymo column membrane, then desulfonated with 0.3M NaOH for 15 minutes at room temperature. DNA was washed and resuspended with 50 μL 10 mM Tris-HCl-0.1 mM EDTA, pH 7.5 and stored at −20° C. The bisulfite reaction results in conversion of an unmethylated cytosine to uracil. Methylated cytosine remains unchanged after the bisulfite reaction. The resulting bisulfite modified DNA is single stranded. PCR amplification for sequencing: Primers were designed to amplify both methylated and unmethylated fragments of DNA (Table 5). Five μL of modified DNA ( 1/10 of modification reaction) was amplified first in a 254, reaction volume containing 10 mM Tris-HCl pH8.3, 50 mM KCl, 1.5 mM to 2 mM MgCl2, (Applied Biosystems), 0.25 mM each dNTP, 0.5 unit AmpliTaq (Applied Biosystems), and sequencing primers (each at 200 nM). Cycling conditions were 10 minutes at 95° C., 40 cycles of 30 seconds at 95° C., 30 seconds at 54-62° C., 30 seconds at 72° C., subsequently followed by extension for 5 minutes at 72° C.
Reaction products were purified either by the shrimp-alkaline phosphatase-Exol standard method or on the Qiagen Qiaquick PCR clean-up column and eluted in 30 μL 10 mM Tris-HCl, pH8.5. […]

Nc1ncn([C@H]2C[C@H](O)[C@@H](CO)O2)c(=O)n1 [5-aza-2′-deoxycytidine]
CA4 sequencing result (methylation) at CpG site #6 (HT-29 treated): 47 | CA4 sequencing result (methylation) at CpG site #35 (HT-29 treated): 96 | CA4 sequencing result (methylation) at CpG site #43 (HT-29 treated): 77 | CA4 sequencing result (methylation) at CpG site #52 (HT-29 treated): 92 | CA4 sequencing result (methylation) at CpG site #104 (HT-29 treated): 50 | CA4 sequencing result (methylation) at CpG site #120 (HT-29 treated): 67 | CA4 sequencing result (methylation) at CpG site #127 (HT-29 treated): 74 | CA4 sequencing result (methylation) at CpG site #129 (HT-29 treated): 87 | CA4 sequencing result (methylation) at CpG site #140 (HT-29 treated): 84 | CA4 sequencing result (methylation) at CpG site #153 (HT-29 treated): 83 | CA4 sequencing result (methylation) at CpG site #156 (HT-29 treated): 72 | CA4 sequencing result (methylation) at CpG site #158 (HT-29 treated): 87 | CA4 sequencing result (methylation) at CpG site #164 (HT-29 treated): 87 | CA4 sequencing result (methylation) at CpG site #181 (HT-29 treated): 73 | CA4 sequencing result (methylation) at CpG site #190 (HT-29 treated): 68 | CA4 sequencing result (methylation) at CpG site #199 (HT-29 treated): 92 | CA4 sequencing result (methylation) at CpG site #201 (HT-29 treated): 100 | CA4 sequencing result (methylation) at CpG site #204 (HT-29 treated): 94 | CA4 sequencing result (methylation) at CpG site #213 (HT-29 treated): 91 | CA4 sequencing result (methylation) at CpG site #218 (HT-29 treated): 65 | CA4 sequencing result (methylation) at CpG site #220 (HT-29 treated): 79 | CA4 sequencing result (methylation) at CpG site #227 (HT-29 treated): 47 | CA4 sequencing result (methylation) at CpG site #6 (LS123 treated): 75 | CA4 sequencing result (methylation) at CpG site #35 (LS123 treated): 39 | CA4 sequencing result (methylation) at CpG site #43 (LS123 treated): 62 | CA4 sequencing result (methylation) at CpG site #52 (LS123 treated): 69 | CA4 sequencing result (methylation) at CpG site #104 (LS123 treated): 16 | CA4 sequencing result (methylation) at CpG site #120 (LS123 treated): 27 | CA4 sequencing result (methylation) at CpG site #127 (LS123 treated): 70 | CA4 sequencing result (methylation) at CpG site #129 (LS123 treated): 46 | CA4 sequencing result (methylation) at CpG site #140 (LS123 treated): 62 | CA4 sequencing result (methylation) at CpG site #153 (LS123 treated): 43 | CA4 sequencing result (methylation) at CpG site #156 (LS123 treated): 40 | CA4 sequencing result (methylation) at CpG site #158 (LS123 treated): 22 | CA4 sequencing result (methylation) at CpG site #164 (LS123 treated): 62 | CA4 sequencing result (methylation) at CpG site #181 (LS123 treated): 18 | CA4 sequencing result (methylation) at CpG site #190 (LS123 treated): 11 | CA4 sequencing result (methylation) at CpG site #199 (LS123 treated): 17 | CA4 sequencing result (methylation) at CpG site #201 (LS123 treated): 33 | CA4 sequencing result (methylation) at CpG site #204 (LS123 treated): 20 | CA4 sequencing result (methylation) at CpG site #213 (LS123 treated): 29 | CA4 sequencing result (methylation) at CpG site #218 (LS123 treated): 24 | CA4 sequencing result (methylation) at CpG site #220 (LS123 treated): 20 | CA4 sequencing result (methylation) at CpG site #227 (LS123 treated): 11 | CA4 sequencing result (methylation) at CpG site #6 (LS174T treated): 93 | CA4 sequencing result (methylation) at CpG site #35 (LS174T treated): 35 | CA4 sequencing result (methylation) at CpG site #43 (LS174T treated): 39 | CA4 sequencing result (methylation) at CpG site #52 (LS174T treated): 40 | CA4 sequencing result (methylation) at CpG site #104 (LS174T treated): 18 | CA4 sequencing result (methylation) at CpG site #120 (LS174T treated): 22 | CA4 sequencing result (methylation) at CpG site #127 (LS174T treated): 19 | CA4 sequencing result (methylation) at CpG site #129 (LS174T treated): 62 | CA4 sequencing result (methylation) at CpG site #140 (LS174T treated): 28 | CA4 sequencing result (methylation) at CpG site #153 (LS174T treated): 23 | CA4 sequencing result (methylation) at CpG site #156 (LS174T treated): 32 | CA4 sequencing result (methylation) at CpG site #158 (LS174T treated): 10 | CA4 sequencing result (methylation) at CpG site #164 (LS174T treated): 41 | CA4 sequencing result (methylation) at CpG site #181 (LS174T treated): 22 | CA4 sequencing result (methylation) at CpG site #190 (LS174T treated): 61 | CA4 sequencing result (methylation) at CpG site #199 (LS174T treated): 10 | CA4 sequencing result (methylation) at CpG site #201 (LS174T treated): 67 | CA4 sequencing result (methylation) at CpG site #204 (LS174T treated): 3 | CA4 sequencing result (methylation) at CpG site #213 (LS174T treated): 56 | CA4 sequencing result (methylation) at CpG site #218 (LS174T treated): 64 | CA4 sequencing result (methylation) at CpG site #220 (LS174T treated): 45 | CA4 sequencing result (methylation) at CpG site #227 (LS174T treated): 27 | CA4 sequencing result (methylation) at CpG site #6 (SW480 treated): 70 | CA4 sequencing result (methylation) at CpG site #35 (SW480 treated): 61 | CA4 sequencing result (methylation) at CpG site #43 (SW480 treated): 57 | CA4 sequencing result (methylation) at CpG site #52 (SW480 treated): 73 | CA4 sequencing result (methylation) at CpG site #104 (SW480 treated): 13 | CA4 sequencing result (methylation) at CpG site #120 (SW480 treated): 52 | CA4 sequencing result (methylation) at CpG site #127 (SW480 treated): 44 | CA4 sequencing result (methylation) at CpG site #129 (SW480 treated): 18 | CA4 sequencing result (methylation) at CpG site #140 (SW480 treated): 14 | CA4 sequencing result (methylation) at CpG site #153 (SW480 treated): 17 | CA4 sequencing result (methylation) at CpG site #156 (SW480 treated): 53 | CA4 sequencing result (methylation) at CpG site #158 (SW480 treated): 7 | CA4 sequencing result (methylation) at CpG site #164 (SW480 treated): 66 | CA4 sequencing result (methylation) at CpG site #181 (SW480 treated): 27 | CA4 sequencing result (methylation) at CpG site #190 (SW480 treated): 57 | CA4 sequencing result (methylation) at CpG site #199 (SW480 treated): 28 | CA4 sequencing result (methylation) at CpG site #201 (SW480 treated): 56 | CA4 sequencing result (methylation) at CpG site #204 (SW480 treated): 27 | CA4 sequencing result (methylation) at CpG site #213 (SW480 treated): 51 | CA4 sequencing result (methylation) at CpG site #218 (SW480 treated): 35 | CA4 sequencing result (methylation) at CpG site #220 (SW480 treated): 32 | CA4 sequencing result (methylation) at CpG site #227 (SW480 treated): 23 | CA4 sequencing result (methylation) at CpG site #6 (SW620 treated): 64 | CA4 sequencing result (methylation) at CpG site #35 (SW620 treated): 89 | CA4 sequencing result (methylation) at CpG site #43 (SW620 treated): 81 | CA4 sequencing result (methylation) at CpG site #52 (SW620 treated): 77 | CA4 sequencing result (methylation) at CpG site #104 (SW620 treated): 33 | CA4 sequencing result (methylation) at CpG site #120 (SW620 treated): 74 | CA4 sequencing result (methylation) at CpG site #127 (SW620 treated): 67 | CA4 sequencing result (methylation) at CpG site #129 (SW620 treated): 80 | CA4 sequencing result (methylation) at CpG site #140 (SW620 treated): 78 | CA4 sequencing result (methylation) at CpG site #153 (SW620 treated): 60 | CA4 sequencing result (methylation) at CpG site #156 (SW620 treated): 69 | CA4 sequencing result (methylation) at CpG site #158 (SW620 treated): 73 | CA4 sequencing result (methylation) at CpG site #164 (SW620 treated): 92 | CA4 sequencing result (methylation) at CpG site #181 (SW620 treated): 43 | CA4 sequencing result (methylation) at CpG site #190 (SW620 treated): 46 | CA4 sequencing result (methylation) at CpG site #199 (SW620 treated): 10 | CA4 sequencing result (methylation) at CpG site #201 (SW620 treated): 96 | CA4 sequencing result (methylation) at CpG site #204 (SW620 treated): 100 | CA4 sequencing result (methylation) at CpG site #213 (SW620 treated): 96 | CA4 sequencing result (methylation) at CpG site #218 (SW620 treated): 91 | CA4 sequencing result (methylation) at CpG site #220 (SW620 treated): 93 | CA4 sequencing result (methylation) at CpG site #227 (SW620 treated): 37
